Measured values taken from paper PMC4013053, “Identification of Selective Small Molecule Inhibitors of the Nucleotide-Binding Oligomerization Domain 1 (NOD1) Signaling Pathway” (PLoS ONE, 2014).
In brackets after ≈: the same amount, converted by molar mass. Read-outs that look alike come from different tables or passages of the source.

Key:
NOD1 [1] = biological target: T1, NOD1 (Homo sapiens, UniProt Q9Y239); experiment: iE-DAP-stimulated IL-8 release in 293/hNOD1 cells; type: cell-based
T1 sequence (Q9Y239 1-953): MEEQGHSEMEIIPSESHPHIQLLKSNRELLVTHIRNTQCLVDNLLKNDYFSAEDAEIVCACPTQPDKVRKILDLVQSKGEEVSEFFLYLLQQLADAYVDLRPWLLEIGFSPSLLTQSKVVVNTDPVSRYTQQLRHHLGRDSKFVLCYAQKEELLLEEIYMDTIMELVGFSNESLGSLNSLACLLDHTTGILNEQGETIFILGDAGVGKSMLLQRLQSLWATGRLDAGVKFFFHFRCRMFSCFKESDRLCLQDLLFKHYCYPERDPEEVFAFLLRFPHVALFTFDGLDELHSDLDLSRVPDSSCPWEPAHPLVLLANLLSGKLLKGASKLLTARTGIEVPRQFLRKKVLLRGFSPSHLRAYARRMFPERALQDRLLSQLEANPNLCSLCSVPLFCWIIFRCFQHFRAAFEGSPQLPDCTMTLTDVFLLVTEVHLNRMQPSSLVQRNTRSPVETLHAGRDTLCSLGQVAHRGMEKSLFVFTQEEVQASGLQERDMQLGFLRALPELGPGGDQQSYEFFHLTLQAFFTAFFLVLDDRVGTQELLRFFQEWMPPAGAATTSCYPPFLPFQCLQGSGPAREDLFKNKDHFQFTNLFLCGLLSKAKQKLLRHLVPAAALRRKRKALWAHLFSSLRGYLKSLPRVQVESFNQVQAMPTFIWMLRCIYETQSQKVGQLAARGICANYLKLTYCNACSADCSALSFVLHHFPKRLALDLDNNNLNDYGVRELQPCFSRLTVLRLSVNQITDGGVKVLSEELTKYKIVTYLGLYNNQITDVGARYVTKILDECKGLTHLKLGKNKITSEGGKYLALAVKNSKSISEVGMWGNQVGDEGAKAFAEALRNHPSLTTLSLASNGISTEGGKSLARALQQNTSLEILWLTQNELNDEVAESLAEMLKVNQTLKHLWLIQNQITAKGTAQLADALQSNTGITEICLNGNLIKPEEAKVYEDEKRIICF
Protocol: Inhibitors of iE-DAP-stimulated IL-8 release were screened in a 1536-well assay in which 293/hNOD1 cells (5000 cells/well) in DMEM high glucose medium supplemented with 0.1% FBS and 10 µg/mL Blasticidin S were stimulated with 60 ng/mL (200 nM) iE-DAP (EC80) in the presence of 10 µM compounds. After 24 hours the amount of IL-8 secreted into the medium was determined by homogeneous time resolved fluorescence (HTRF) assay by the direct addition of a 1∶1 mix of europium cryptate and XL665-conjugated anti-IL-8 antibodies according to the manufacturer’s instructions (Cisbio). Fluorescence was measured after 2 hours in a ViewLux imager using UMB-AMC excitation and 618–671 nm emission filters (Perkin Elmer). […] Inhibition of TNFR1-induced IL-8 release was performed with 293/hNOD1 cells stimulated with 20 ng/mL (∼EC95) rhTNFα.
A high-throughput screen of about 2.2 million compounds was conducted for inhibitors of the NOD1 signaling pathway using suppression of iE-DAP stimulated IL-8 secretion in HEK293 cells stably expressing human NOD1 (293/hNOD1 cells). […] These assays were chosen to assess the selectivity of hits because the signaling pathways activated by these receptors converge at the level of the TAB/TAK1/IKK complex.

[2] = Chromatographic hydrophobicity index (Chrom log D); type: physicochemical; conditions: pH 7.4
Source text: (§1) Physicochemical analyses of compounds were completed at GSK.

[3] = Permeability across an artificial membrane; type: in vitro ADME; conditions: PAMPA
Source text: as §1

[4] = Immobilized artificial membrane (IAM) binding; type: physicochemical
Source text: as §1

human serum albumin = human serum albumin (Homo sapiens, UniProt P02768); experiment: Human serum albumin (HSA) binding; type: in vitro ADME
Source text: as §1

CLND solubility = type: physicochemical; conditions: phosphate buffered saline with 5% DMSO, pH 7.4, aqueous buffer, kinetic from dmso stock; 5% DMSO pH7.4 phosphate buffered saline
Source text: as §1

α1-acid glycoprotein = α1-acid glycoprotein (AGP) binding; type: in vitro ADME
Source text: as §1

NOD2 = test system: NOD2; design: method as in PMID 22549783; conditions: read-out: NOD2 IC50 (nucleotide binding); cited from earlier work
NOD1 [5] = test system: NOD1; design: method as in PMID 22062585; conditions: read-out: NOD1 IC50 (nucleotide binding); cited from earlier work
NOD1 [6] = conditions: HEK293T cells, read-out: IC50 NF-κB reporter, cited from earlier work
[7] = test system: NOD1 induced NF-κB and MAPK pathways; experiment: Western blotting of IκBα and phospho-MAPKs in Tri-DAP stimulated 293/hNOD1 cells; type: cell-based, human; conditions: 50 µg/mL Tri-DAP 1 hour, immunoblotting
Protocol: Confluent cultures of 293/hNOD1 and -hNOD2 cells seeded in 24-well plates were serum-starved over-night, pre-incubated for 1 hour with compound and then stimulated for 1 hour with either 50 µg/mL Tri-DAP or 25 µg/mL MDP, respectively. Whole cell lysates were prepared in 1X cell lysis buffer (Cell Signaling Technology) supplemented with additional protease, aminopeptidase and phosphatase inhibitors (protease inhibitor cocktail set III, EMD Biosciences; phosphatase inhibitor sets II and III, Sigma-Aldrich). The levels of phosphorylated and total p38, JNK, ERK1/2 and total IκBα were determined by immunoblotting of ∼20 µg protein per sample using the following primary antibodies: phospho-p38 MAPK (12F8, #4631), p38 MAPK (#9212), phospho-JNK (#9251), JNK (#9252) and IκBα (#9242) all purchased from Cell Signaling Technology, and phospho-ERK1/2 (sc-7383) and ERK1/2 (sc-94) antibodies from Santa Cruz Biotechnology.

[8] = iE-DAP-stimulated IL-8 production in 293/hNOD1 cells, SAR figures, read-out: NOD1 XC50
[9] = HEK293 stably expressing human NOD1, IL-8 released into medium, read-out: IC50 293/hNOD1 iE-DAP

Chain of human serum albumin (P02768 25-609): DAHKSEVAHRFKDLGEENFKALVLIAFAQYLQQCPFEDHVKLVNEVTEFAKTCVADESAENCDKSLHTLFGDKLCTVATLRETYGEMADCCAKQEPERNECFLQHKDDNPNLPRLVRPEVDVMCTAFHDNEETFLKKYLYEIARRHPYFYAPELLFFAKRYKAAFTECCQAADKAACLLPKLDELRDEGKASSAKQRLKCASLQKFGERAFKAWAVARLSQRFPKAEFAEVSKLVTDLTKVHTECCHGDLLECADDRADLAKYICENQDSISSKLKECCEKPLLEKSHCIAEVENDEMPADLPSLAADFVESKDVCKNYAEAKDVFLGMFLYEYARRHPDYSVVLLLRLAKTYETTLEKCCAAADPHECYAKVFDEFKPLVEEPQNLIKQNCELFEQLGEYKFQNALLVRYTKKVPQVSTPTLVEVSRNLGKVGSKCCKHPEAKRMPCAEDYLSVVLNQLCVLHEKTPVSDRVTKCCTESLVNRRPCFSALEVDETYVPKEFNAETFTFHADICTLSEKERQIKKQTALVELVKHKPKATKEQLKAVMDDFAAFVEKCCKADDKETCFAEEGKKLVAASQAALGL

Cc1cc(=O)n(-c2ccc(Cl)c(NS(=O)(=O)c3ccccc3F)c2)c(C)n1 [Compound 29, N-(2-chloro-5-(2,4-dimethyl-6-oxopyrimidin-1(6H)-yl)phenyl)-2-fluorobenzenesulfonamide]
IC50 (NOD1 [1]; [8]): 25000 ± 17500 nM

CCc1ccc(S(=O)(=O)Nc2cccc(-n3c(C)nc4ccccc4c3=O)c2)s1 [Compound 14]
IC50 (NOD1 [1]; [9]): 15100 nM

Cc1nc(C)n(-c2ccc(Cl)c(NS(=O)(=O)c3ccccc3F)c2)c(=O)c1C [Compound 28, N-(2-chloro-5-(2,4,5-trimethyl-6-oxopyrimidin-1(6H)-yl)phenyl)-2-fluorobenzenesulfonamide]
IC50 (NOD1 [1]; [8]): 3500 ± 500 nM

Cc1ccc(S(=O)(=O)Nc2cc(-n3c(C)nc4ccccc4c3=O)ccc2F)cc1C [Compound 11]
IC50 (NOD1 [1]; [8]): 1100 ± 700 nM

Cc1nc2ccccc2c(=O)n1-c1ccc(F)c(NS(=O)(=O)c2ccccc2F)c1 [Compound 8]
chromatographic logD [2]: 3.24
Papp [3]: 35 ×10⁻⁶ cm/s
IAM binding [4]: 1.42 log K
HSA binding (human serum albumin): 96.05%
IC50 (NOD1 [1]; [9]): 700 nM
solubility (CLND solubility): 391 µM (≈ 167 µg/mL)
AGP binding (α1-acid glycoprotein): 80.38%

Cc1cccc(CSc2nc3c(c(=O)[nH]c(=O)n3C)n2Cc2ccccc2)c1 [Compound 5]
IC50 (NOD1 [1]; [8]): 8900 ± 1600 nM

Cc1nc2ccc(Cl)cc2c(=O)n1-c1ccc(Cl)c(NS(=O)(=O)c2ccccc2F)c1 [Compound 26, N-(2-chloro-5-(6-chloro-2-methyl-4-oxoquinazolin-3(4H)-yl)phenyl)-2-fluorobenzenesulfonamide]
IC50 (NOD1 [1]; [8]): 26 nM

COc1ccc(S(=O)(=O)Nc2cccc(C(=O)Nc3ccc4nc(C)sc4c3)c2)cc1 [Compound 20]
IC50 (NOD1 [1]; [8]): 2300 ± 800 nM

Cc1nc2ccccc2c(=O)n1-c1ccc(F)c(NS(=O)(=O)c2cccs2)c1 [Compound 13]
chromatographic logD [2]: 2.87
Papp [3]: 26 ×10⁻⁶ cm/s
IAM binding [4]: 1.36 log K
HSA binding (human serum albumin): 96.08%
IC50 (NOD1 [1]; [8]): 2300 ± 1700 nM
solubility (CLND solubility): 423 µM (≈ 176 µg/mL)
AGP binding (α1-acid glycoprotein): 81.23%

Cn1c(=O)[nH]c(=O)c2c1nc(CCCSc1ccccc1)n2Cc1ccccc1 [Compound 2]
IC50 (NOD1 [1]; [8]): 2500 ± 1300 nM

Cn1c(=O)[nH]c(=O)c2c1nc(SCc1ccccc1)n2Cc1ccccc1 [Compound 7]
IC50 (NOD1 [1]; [8]): 37300 ± 18100 nM

Nc1ncnc2c1ncn2[C@@H]1O[C@H](COP(=O)(O)OP(=O)(O)OP(=O)(O)O)[C@@H](O)[C@H]1O [ATP]
IC50 (NOD2): ~60 nM
IC50 (NOD1 [5]): ~15 nM

C/C=C/Cn1c(SCCc2ccccc2)nc2c1c(=O)[nH]c(=O)n2C [Compound 6]
IC50 (NOD1 [1]; [8]): 9600 ± 2800 nM

CC(=O)Nc1ccc2nc(NC(=O)c3cccc(NS(=O)(=O)c4ccc(C)cc4)c3)sc2c1 [Compound 18]
IC50 (NOD1 [1]; [8]): 1400 ± 300 nM

Cc1nc2ccccc2c(=O)n1-c1ccc(F)c(NS(=O)(=O)c2ccc(F)cc2F)c1 [Compound 10]
IC50 (NOD1 [1]; [8]): 2200 ± 3300 nM

C/C=C/Cn1c(SCCCc2ccccc2)nc2c1c(=O)[nH]c(=O)n2C [ML146]
IC50 (NOD1 [6]; ref Magnuson et al, 2010): 1500 nM

Cc1nc2ccccc2c(=O)n1-c1ccc(Cl)c(NS(=O)(=O)c2ccc3c(c2)OCCO3)c1 [Compound 23]
IC50 (NOD1 [1]; [8]): 100 ± 40 nM

Cc1ccc(S(=O)(=O)Nc2cccc(C(=O)Nc3ccc4nc(C)sc4c3)c2)c(F)c1 [Compound 17]
IC50 (NOD1 [1]; [8]): 760 ± 100 nM

Cc1ccc(S(=O)(=O)Nc2cccc(C(=O)Nc3nc4ccc([N+](=O)[O-])cc4s3)c2)cc1 [Compound 15]
IC50 (NOD1 [1]; [9]): 200 nM
IC50 (NOD1 [1]; [8]): 190 ± 30 nM

Cc1nc2cc(Cl)ccc2c(=O)n1-c1ccc(Cl)c(NS(=O)(=O)c2ccccc2F)c1 [Compound 27, N-(2-chloro-5-(7-chloro-2-methyl-4-oxoquinazolin-3(4H)-yl)phenyl)-2-fluorobenzenesulfonamide]
IC50 (NOD1 [1]; [8]): 2500 ± 1200 nM

O=C(Nc1ccc2c(c1)OCO2)c1cccc(NS(=O)(=O)c2ccc(Cl)cc2)c1 [Compound 21]
chromatographic logD [2]: 5.17
Papp [3]: 23 ×10⁻⁶ cm/s
IAM binding [4]: 2.40 log K
HSA binding (human serum albumin): 98.01%
IC50 (NOD1 [1]; [8]): 3700 ± 1400 nM
solubility (CLND solubility): 46 µM (≈ 19.8 µg/mL)
AGP binding (α1-acid glycoprotein): 87.41%

Cc1ccc(S(=O)(=O)n2c(N)nc3ccccc32)cc1 [ML130]
IC50 (NOD1 [6]): 560 nM

CCCCCCSc1nc2c(c(=O)[nH]c(=O)n2C)n1Cc1ccccc1 [Compound 3]
IC50 (NOD1 [1]; [8]): 4700 ± 1400 nM

COc1ccc(Cl)cc1S(=O)(=O)Nc1cc(-n2c(C)nc3ccccc3c2=O)ccc1Cl [Compound 25]
IC50 (NOD1 [1]; [8]): 500 ± 100 nM

Cc1ccc(S(=O)(=O)Nc2cc(-n3c(C)nc4ccccc4c3=O)ccc2Cl)cc1 [Compound 24]
IC50 (NOD1 [1]; [8]): 200 ± 200 nM

Cn1c(=O)[nH]c(=O)c2c1nc(SCCCc1ccccc1)n2Cc1ccccc1 [Compound 4]
IC50 (NOD1 [1]; [8]): 8700 ± 1500 nM

Cc1nc2ccccc2c(=O)n1-c1ccc(F)c(NS(=O)(=O)c2cc(Cl)ccc2Cl)c1 [Compound 12]
IC50 (NOD1 [1]; [8]): 1200 ± 100 nM

Cc1nc2ccccc2c(=O)n1-c1ccc(F)c(NS(=O)(=O)c2ccc(Cl)s2)c1 [Compound 9]
IC50 (NOD1 [1]; [9]): 700 nM
effect on Tri-DAP induced p-JNK, p-p38 and IκBα responses [7]: reduced both phospho-JNK and the weaker phospho-p38 levels while levels of IκBα were increased

N#Cc1ccc(-c2csc(NC(=O)c3cccc(NS(=O)(=O)c4ccc(Cl)cc4)c3)n2)cc1 [Compound 19]
IC50 (NOD1 [1]; [8]): 2000 ± 500 nM

Cn1c(=O)[nH]c(=O)c2c1nc(SCCc1ccccc1)n2Cc1ccccc1 [Compound 1]
IC50 (NOD1 [1]; [8]): 400 ± 80 nM
